The record followed here is patent publication US8772251B2, “Use of isothiocyanate derivatives as anti-myeloma agents” (Indena S.p.A., priority 2008, dated 2014).

The subject of experiment [1] is HCT116 p53+/+. Put plainly: Cytotoxic activity, cell count (24 h). It counts as cell-based. The note with it: Homo sapiens, read-out: Cell count (24 h) IC50. The text has this: (§1) Cytotoxic activity of the Moringa derived isothiocyanate (GMG-ITC) on a panel of human tumor cell lines.
For experiment [2], the system named is RPMI-8226. Put plainly: Cytotoxic activity, cell count (24 h). It is filed as cell-based. As to conditions: Homo sapiens, read-out: Cell count (24 h) IC50.
Description: as §1

Experiment [3] relates to A2780. The experiment is described as follows: Cytotoxic activity, cell count (24 h). It counts as cell-based.
Description: as §1

The subject of experiment [4] is H460 S5. The experiment is described as follows: Cytotoxic activity, cell count (24 h). It is filed as cell-based. The note with it: Homo sapiens, read-out: Cell count (24 h) IC50.
Description: as §1

Experiment [5] relates to HCT116 p53−/−. The experiment is described as follows: Cytotoxic activity, cell count (24 h). It counts as cell-based. As to conditions: Homo sapiens, read-out: Cell count (24 h) IC50.
Description: as §1

Experiment [6] concerns H460 wt. Put plainly: Cytotoxic activity, cell count (24 h). It is filed as cell-based. The note with it: Homo sapiens, read-out: Cell count (24 h) IC50.
Description: as §1

The test system of experiment [7] is MCF7 NEO. The experiment is described as follows: Cytotoxic activity, cell count (24 h). It is filed as cell-based. As to conditions: Homo sapiens, read-out: Cell count (24 h) IC50.
Description: as §1

The subject of experiment [8] is MCF7 π. Put plainly: Cytotoxic activity, cell count (24 h). It counts as cell-based. As to conditions: Homo sapiens, read-out: Cell count (24 h) IC50.
Description: as §1

Experiment [9] has as its system HL60. The experiment is described as follows: Cytotoxic activity, cell count (24 h). It counts as cell-based. The note with it: Homo sapiens, read-out: Cell count (24 h) IC50.
Description: as §1

Experiment [10] has as its system human myeloma tumor cell lines s.c. transplanted. The experiment is described as follows: Antitumor activity in vivo in SCID mice bearing s.c. transplanted human myeloma. The text has this:
In the table 3 is reported the antitumor activity of the GMG-ITC administered in vivo in SCID mice bearing human myeloma tumor cell lines s.c. transplanted.

Experiment [11] relates to human ovarian carcinoma A2780. Put plainly: Antitumor activity in vivo against human ovarian carcinoma A2780.
Experiment [12] relates to H460 human lung tumor cell line. Put plainly: Sensitivity of H460 cells to glucomoringin with or without myrosinase (cell growth relative to control). As to conditions: GMG 100 μM, no MYR. It counts as cell-based.

Like-named read-outs stand apart in the source and are kept apart here.

The IC50 is the concentration that inhibits the measured activity by half. Turning to `C[S+]([O-])CCCCN=C=S` (centres unmarked) [GRA, sulphorafane, reference compound], the IC50 in experiment [1] (HCT-116, HCT116 p53+/+, 24 h) is 17 ± 2.3 µM; in experiment [2] (RPMI-8226 (myeloma), 24 h), 8 ± 0.2 µM; in [3] (Homo sapiens, A2780, 24 h; read-out: Cell count (24 h) IC50), 18 ± 1 µM; in experiment [4] (NCI-H460, H460 S5, 24 h), 19 ± 1 µM; in experiment [5] (HCT-116, HCT116 p53−/−, 24 h), 18 ± 5.3 µM; in experiment [6] (NCI-H460, H460 wt, 24 h), 29 ± 0.5 µM. Besides, the concentration for half-maximal inhibition (IC50) in experiment [7] (MCF7 NEO, 24 h) was found to be 26 ± 4 µM; in experiment [8] (MCF7 π, 24 h) it was 27 ± 4 µM; in [9] (HL-60, HL60, 24 h) it was 16 ± 1 µM.

In the case of `CC1OC(Oc2ccc(CN=C=S)cc2)C(O)C(O)C1O` (centres unmarked) [GMG-ITC], the TWI % in experiment [10] (i.p. q5dx2w, 20 mg/kg/inj.) was 70%; in [11] (i.p. q5dx2w, 20 mg/kg/inj.), 46%. The half-inhibitory concentration (IC50) worked out at 12 ± 0.3 µM in experiment [1] (HCT-116, 24 h); 6 ± 1 µM in experiment [2] (RPMI-8226, 24 h); 15 ± 3 µM in [3] (Homo sapiens, A2780, 24 h, read-out: Cell count (24 h) IC50); 18 ± 6.7 µM in experiment [4] (NCI-H460, 24 h); 13 ± 0.25 µM in experiment [5] (HCT-116, 24 h); 29 ± 0.8 µM in experiment [6] (NCI-H460, 24 h). In addition, the IC50 was 20 ± 4.4 µM in [7] (MCF7, 24 h); 21 ± 5.7 µM in experiment [8] (MCF7, 24 h); 15 ± 1 µM in experiment [9] (HL-60, 24 h). The antitumor activity entry in experiment [11] is “low”.

On to `C[C@@H]1O[C@@H](Oc2ccc(C/C(=N/OS(=O)(=O)O)S[C@@H]3O[C@H](CO)[C@@H](O)[C@H](O)[C@H]3O)cc2)[C@H](O)[C@H](O)[C@H]1O` [GMG, glucomoringin], for which the TWI % in experiment [10] (p.o. q5dx2, 400 mg/kg/inj.) is 62%. The “% of cells growth relative to control” value in experiment [12] (24 h recovery) came to 100%; in experiment [12] (24 h treatment) it was 98%; in experiment [12] (48 h recovery) it was 100%; in [12] (time 0) it was 100%.
